Measurements taken from patent publication US6033669A, “Methods for generating cytotoxic T cells and treatment of diseases thereby” (priority 1992, dated 2000).
Non-standard residues stand in square brackets, D forms with d. Residues, ends and D or L forms follow the SMILES beside them. *: point of attachment. CH2CH2O(Galα1-4Galβ) = OC[C@H]1O[C@H](O[C@@H]2[C@H](O)[C@@H](O)[C@H](OCC*)O[C@@H]2CO)[C@H](O)[C@@H](O)[C@H]1O; X1 = OC[C@H]1O[C@H](O[C@@H]2[C@H](O)[C@@H](O)[C@H](*)O[C@@H]2CO)[C@H](O)[C@@H](O)[C@H]1O; hCys = N[C@@H](CCS)C(=O)O

Legend:
RMA-S cells = assay: Membrane expression of the CHO part (Gal2) by antibody staining in FACS; assay type: cell-based; conditions: data not shown
Method: Panel A: RMA-s cells were incubated for 24 hours at 26° C. to induce expression of empty D^b MHC-1 chains at the cell surface, and at 37° C., and stained for D^b expression. Panel B: Removal of D^b expression by pronase treatment of RMA-S cells, preincubated at 26° C. Pronase treatment for 2 h and 4 h. D^b removal is complete at 4 h. Panels C and E: 26° C. induced RMA-S cells were treated with the glycopeptides Gal2 -CSG11 (panel C) or Gal2 CAS10 (panel E), 300 μM for 2 h at 37° C., washed and stained for Gal2 expression. Panels D and F: Glycopeptide treated RMA-S cells as in panels C and E were pronase treated to remove Db and glycopeptide expression, washed and further incubated at 37° C. to allow re-expression of glycopeptides and stained for Gal2 expression.
When the glycopeptide bind to MHC-1, on the cell surface, the expression (and acessibility) of the corresponding CHO part, can be detected by antibody staining in FACS, as described above in relation to FIGS. 10C and E.

[1] = tested on: monoclonal antibody MC2101; assay: ELISA recognition of Gal2 glycopeptides by monoclonal antibody MC2101; assay type: binding, mouse; conditions: for Absorbance at 405 nm: antibody MC2101 (specificity Galabios Gal--Gal), peptides coated at 50 μg/ml, pH 9.6
Method: (§1) Peptides (50 μg/ml) were diluted in 0.05 M carbonate buffer (pH 9.6) and 100 μl/well was added to flat-bottomed Costar microplates (cat. No 3590) for incubation over-night at 4° C. Plates were washed once with PBS, pre-incubated with […] for 30 minutes at room temperature and washed twice with PBS/0.05% Tween buffer. Monoclonal antibodies were diluted in 0.5% gelatin/PBS/0.05% Tween, added to microplates and incubated for 2 hours at room temperaure, and flick-washed with PBS/Tween. Alkaline phosphatase conjugated rabbit anti-mouse immunoglobulins (Dakopauts code No. S 414) was diluted 1/1000 in PBS/Tween and added as 100 μl/well. After 2 hours incubation at room temperature and 4 washes with PBS/Tween, 100 μl of alkaline phosphatase substrate solution was added. Plates were read after 2 hour at room temperaure, using a Multiskan System (Lab systems), for optical density at 405 nm.
The ELISA assay was performed as described in connection with Table 4.

[2] = tested on: monoclonal antibody Pk002; assay: ELISA recognition of Gal2 glycopeptides by monoclonal antibody Pk002; assay type: binding, mouse; conditions: antibody Pk002 (specificity Globotriaosyl Gal--Gal--Glc, CD77); peptides coated at 50 μg/ml, pH 9.6
Method: as §1

[3] = tested on: target cells coated with different peptides and glycopeptides; assay: Immunogenicity: mice immunized with glycopeptides, restimulated CTL tested for killing of coated target cells; assay type: in vivo

CSCC[C@H](NC(=O)[C@@H](NC(=O)[C@H](CCC(=O)O)NC(=O)[C@H](CO[C@@H]1O[C@H](CO)[C@H](O[C@H]2O[C@H](CO)[C@H](O)[C@H](O)[C@H]2O)[C@H](O)[C@H]1O)NC(=O)[C@H](CC(N)=O)NC(=O)[C@H](CCC(=O)O)NC(=O)[C@H](CC(N)=O)NC(=O)[C@H](CO)NC(=O)[C@H](C)N)[C@@H](C)O)C(=O)O [Conjugate A5N9-6S-Gal2] (H-ASNENS(X1)ETM-OH)
expression of the Gal2 epitope on the surface of cells that have bound glycopeptides (FACS) (RMA-S cells): not recognized

CSCC[C@H](NC(=O)[C@@H](NC(=O)[C@H](CCC(=O)O)NC(=O)[C@H](CCSC)NC(=O)[C@H](CC(N)=O)NC(=O)[C@H](CCC(=O)O)NC(=O)[C@H](CC(N)=O)NC(=O)[C@H](CO)NC(=O)[C@H](C)NC(=O)[C@@H](N)CSCCO[C@@H]1O[C@H](CO)[C@H](O[C@H]2O[C@H](CO)[C@H](O)[C@H](O)[C@H]2O)[C@H](O)[C@H]1O)[C@@H](C)O)C(=O)O [Gal2 -CAS10]
Absorbance at 405 nm [1]: 0.41
Absorbance at 405 nm [2]: 0.04

CC(C)C[C@H](NC(=O)CNC(=O)[C@H](CCC(N)=O)NC(=O)[C@H](Cc1ccc(O)cc1)NC(=O)[C@@H](NC(=O)[C@H](Cc1ccc(O)cc1)NC(=O)CNC(=O)[C@H](CCCNC(=N)N)NC(=O)[C@@H](N)CSCCO[C@@H]1O[C@H](CO)[C@H](O[C@H]2O[C@H](CO)[C@H](O)[C@H](O)[C@H]2O)[C@H](O)[C@H]1O)C(C)C)C(=O)O [Gal2 -CRG9]
expression of the Gal2 epitope on the surface of cells that have bound glycopeptides (FACS) (RMA-S cells): high Gal2 expression

CC[C@H](C)[C@H](NC(=O)[C@H](CCC(=O)O)NC(=O)[C@@H]1CCCN1C(=O)[C@@H]1CCCN1C(=O)[C@@H](NC(=O)[C@H](CC(N)=O)NC(=O)[C@H](CO)NC(=O)[C@@H]1CCCN1C(=O)CNC(=O)[C@H](CO)NC(=O)[C@@H](N)CSCCO[C@@H]1O[C@H](CO)[C@H](O[C@H]2O[C@H](CO)[C@H](O)[C@H](O)[C@H]2O)[C@H](O)[C@H]1O)[C@@H](C)O)C(=O)O [Gal2 -CSG11]
reactivity with MC2101 in ELISA, comparison [1]: reacted stronger than the GAL2 -CAS10 peptide
Absorbance at 405 nm [1]: 1.86
Absorbance at 405 nm [2]: 0.04
expression of the Gal2 epitope on the surface of cells that have bound glycopeptides (FACS) (RMA-S cells): high Gal2 expression

CC(C)C[C@H](NC(=O)CNC(=O)[C@H](CCC(N)=O)NC(=O)[C@H](Cc1ccc(O)cc1)NC(=O)[C@H](CCSCCO[C@@H]1O[C@H](CO)[C@H](O[C@H]2O[C@H](CO)[C@H](O)[C@H](O)[C@H]2O)[C@H](O)[C@H]1O)NC(=O)[C@H](Cc1ccc(O)cc1)NC(=O)CNC(=O)[C@@H](N)CCCNC(=N)N)C(=O)O [RGY8-4h-Gal2] (H-RGY[hCys](CH2CH2O(Galα1-4Galβ))YQGL-OH)
CTL generated, tested against EL-4 cells coated with RGY8-4 h-Gal2 and RGY8-4 h ([3]; FIG. 14(A)): both peptide and glycopeptide specific CTL cells are generated
killing of EL-4 cells coated with SGV12-Gal2 or SGV12 by generated CTL ([3]; FIG. 14(B), criss-cross): only the cells coated with glycopeptide were killed

CC(C)C[C@H](NC(=O)[C@H](CSCCO[C@@H]1O[C@H](CO)[C@H](O[C@H]2O[C@H](CO)[C@H](O)[C@H](O)[C@H]2O)[C@H](O)[C@H]1O)NC(=O)[C@H](Cc1ccc(O)cc1)NC(=O)CNC(=O)CNC(=O)[C@@H]1CCCN1C(=O)[C@H](CC(N)=O)NC(=O)[C@H](CCC(=O)O)NC(=O)[C@@H](NC(=O)CNC(=O)[C@@H](N)CO)C(C)C)C(=O)N[C@H](C(=O)O)[C@@H](C)O [SGV12-Gal2]
expression of the Gal2 epitope on the surface of cells that have bound glycopeptides (FACS) (RMA-S cells): high Gal2 expression
killing of EL-4 cells coated with glycopeptide 7 by generated CTL ([3]; FIG. 13): at a lower level
killing of EL-4 cells coated with glycopeptides 2 and 5 by generated CTL ([3]; FIG. 13): killed
recognition of carrier peptide alone (SGV12) and other control peptides by generated CTL ([3]; FIG. 13): did not recognize the carrier peptide alone
type of T cell response generated by immunization ([3]; mouse, in vivo): Gal2 specific T cell response

ASNENMDAM [pep 9(NT60)]
lysis of virus specific and peptide-coated EL4 cells by induced CTL (EL4 target cells; 0.05 μM used for restimulation versus 5 μM and 0.5 μM, 100 μg s.c.): more efficiently lysed
anti-peptide and antiviral CTL responses (EL4 target cells; compared with pep 9(PR8), FIG. 3): stronger anti-peptide and antiviral CTL responses
specificity of induced CTL (EL4 target cells; mouse, in vivo): preferentially killed their corresponding peptide-coated and virus-infected cells
